Results: ChEMBL document CHEMBL1201862, “PubChem BioAssay data set” (2004)
The source made the active and inactive calls. For most assays here, no stated cut-off is given here; in the data, actives have a measured EC50 and inactives only a lower limit.

What was measured:
[1] = biological target: T1, Heat shock factor protein 1 (Mus musculus, UniProt P38532); test: decrease of HSF1-responsive luciferase luminescence – cell-based, NIH3T3, dose retest, confirmation (AID 2382); assay type: functional;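 further: NIH3T3 fibroblasts with HSF1-driven luciferase reporter stressed by proteasome inhibitor MG132; luminescence from HSF1-driven luciferase expression after 8 hours of MG132 stress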
T1 sequence (P38532 whole entry): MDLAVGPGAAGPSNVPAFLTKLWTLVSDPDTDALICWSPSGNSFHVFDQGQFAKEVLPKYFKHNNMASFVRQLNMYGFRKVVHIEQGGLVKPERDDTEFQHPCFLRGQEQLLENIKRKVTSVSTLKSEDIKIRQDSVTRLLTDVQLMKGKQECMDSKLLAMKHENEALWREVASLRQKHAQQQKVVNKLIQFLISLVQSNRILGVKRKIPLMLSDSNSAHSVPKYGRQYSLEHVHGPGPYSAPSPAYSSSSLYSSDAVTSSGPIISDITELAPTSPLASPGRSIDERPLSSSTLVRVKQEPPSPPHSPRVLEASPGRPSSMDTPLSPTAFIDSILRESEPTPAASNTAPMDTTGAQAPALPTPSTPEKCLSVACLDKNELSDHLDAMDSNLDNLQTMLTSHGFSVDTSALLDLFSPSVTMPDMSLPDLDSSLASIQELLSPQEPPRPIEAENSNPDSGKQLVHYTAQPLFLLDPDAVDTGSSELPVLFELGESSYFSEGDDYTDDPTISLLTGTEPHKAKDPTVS

Protein RecA [2] = biological target: T2, Protein RecA (Mycobacterium tuberculosis, UniProt P9WHJ3); test: GFP-RecA MOA-DTT Measured in Biochemical System Using Plate Reader - 2047-05_Inhibitor_Dose_DryPowder_Activity. [Related pubchem assays (depositor defined):AID2223]; set-up: species or system Mycobacterium tuberculosis H37Rv
T2 sequence (P9WHJ3 whole entry): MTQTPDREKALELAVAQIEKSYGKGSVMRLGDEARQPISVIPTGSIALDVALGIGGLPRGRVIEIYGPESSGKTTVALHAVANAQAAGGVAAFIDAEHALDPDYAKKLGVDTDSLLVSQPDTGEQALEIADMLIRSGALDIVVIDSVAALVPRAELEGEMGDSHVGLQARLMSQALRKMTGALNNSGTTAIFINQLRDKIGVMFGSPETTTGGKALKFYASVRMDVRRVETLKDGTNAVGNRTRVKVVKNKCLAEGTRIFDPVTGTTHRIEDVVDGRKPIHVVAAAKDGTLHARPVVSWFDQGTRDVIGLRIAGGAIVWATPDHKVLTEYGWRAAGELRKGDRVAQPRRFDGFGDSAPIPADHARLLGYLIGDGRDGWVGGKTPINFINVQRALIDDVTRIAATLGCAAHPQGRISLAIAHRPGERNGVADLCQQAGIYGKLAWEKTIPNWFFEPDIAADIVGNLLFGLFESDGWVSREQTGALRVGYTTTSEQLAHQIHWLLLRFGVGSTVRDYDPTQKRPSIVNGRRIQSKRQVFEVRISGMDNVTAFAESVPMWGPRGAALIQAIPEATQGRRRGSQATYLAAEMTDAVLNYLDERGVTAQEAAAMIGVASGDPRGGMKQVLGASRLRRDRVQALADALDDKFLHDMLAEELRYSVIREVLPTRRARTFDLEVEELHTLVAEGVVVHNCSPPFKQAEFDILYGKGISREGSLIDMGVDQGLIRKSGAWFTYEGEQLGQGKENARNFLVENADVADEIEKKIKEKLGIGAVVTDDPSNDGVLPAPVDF

[3] = biological target: T3, Replicative DNA helicase DnaB (Mycobacterium tuberculosis, UniProt P9WMR3); test: DnaB intein splicing inhibitors, dose response, biochemical, cell-free fluorescence (AID 449749); assay type: functional
T3 sequence (P9WMR3 whole entry): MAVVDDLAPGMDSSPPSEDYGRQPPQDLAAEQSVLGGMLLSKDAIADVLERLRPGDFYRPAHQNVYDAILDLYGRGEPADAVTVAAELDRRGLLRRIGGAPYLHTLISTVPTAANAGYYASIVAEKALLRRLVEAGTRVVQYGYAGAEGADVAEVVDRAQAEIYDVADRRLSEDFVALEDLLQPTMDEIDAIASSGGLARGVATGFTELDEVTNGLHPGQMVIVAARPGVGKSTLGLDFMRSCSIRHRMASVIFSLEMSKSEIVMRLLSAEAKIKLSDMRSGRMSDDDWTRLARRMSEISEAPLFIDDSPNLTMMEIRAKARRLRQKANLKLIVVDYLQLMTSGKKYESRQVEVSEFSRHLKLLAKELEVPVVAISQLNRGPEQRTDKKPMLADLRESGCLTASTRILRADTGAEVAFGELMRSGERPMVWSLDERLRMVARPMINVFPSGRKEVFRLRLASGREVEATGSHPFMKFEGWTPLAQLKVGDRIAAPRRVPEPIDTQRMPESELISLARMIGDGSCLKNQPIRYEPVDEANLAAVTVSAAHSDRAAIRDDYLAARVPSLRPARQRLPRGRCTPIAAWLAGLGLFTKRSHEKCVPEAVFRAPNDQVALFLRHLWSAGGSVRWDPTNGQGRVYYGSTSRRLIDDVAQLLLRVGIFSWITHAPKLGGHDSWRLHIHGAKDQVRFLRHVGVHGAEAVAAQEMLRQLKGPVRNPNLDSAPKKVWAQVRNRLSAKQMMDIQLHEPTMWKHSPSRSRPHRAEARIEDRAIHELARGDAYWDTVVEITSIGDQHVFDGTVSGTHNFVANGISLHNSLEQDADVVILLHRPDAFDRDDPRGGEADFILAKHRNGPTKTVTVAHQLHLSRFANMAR

[4] = microbe, parasite or virus in culture; assay type: functional; settings: Mycobacterium tuberculosis
[5] = biological target: T4, Sphingosine 1-phosphate receptor 1 (Homo sapiens, UniProt P21453); assay type: functional;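 on IC50: Tango beta-arrestin reporter U2OS cells stimulated with S1P near its EC80; inhibitor potency meaning antagonism of receptor activation by the natural agonist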
T4 sequence (P21453 whole entry): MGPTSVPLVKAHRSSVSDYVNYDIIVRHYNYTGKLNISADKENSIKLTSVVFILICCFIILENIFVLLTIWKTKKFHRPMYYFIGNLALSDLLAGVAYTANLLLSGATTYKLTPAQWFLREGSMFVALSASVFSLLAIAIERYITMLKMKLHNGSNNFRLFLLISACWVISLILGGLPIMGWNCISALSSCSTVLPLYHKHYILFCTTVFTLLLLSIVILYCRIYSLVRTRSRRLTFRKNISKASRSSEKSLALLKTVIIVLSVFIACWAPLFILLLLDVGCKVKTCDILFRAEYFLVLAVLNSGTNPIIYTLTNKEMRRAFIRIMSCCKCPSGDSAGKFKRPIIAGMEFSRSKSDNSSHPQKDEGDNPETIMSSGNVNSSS

[6] = luciferase reporter signal suppression in cells – H4 neuroglioma cells, luminescence, dose response (AID 1990); assay type: functional, cell-based
[7] = Luminescence-based dose response cell-based high throughput screening assay for cytotoxic compounds using the IEC-6 intestinal epithelial cell line. [Related pubchem assays: 1858 (Summary AID.), 1825 (Counterscreen.), 1907 (Confirmation screen.)]; assay type: functional
[8] = HEK-293T viability loss after treatment – luminescence, T-cell screen hits, cytotoxicity control for TCR NF-kB inhibitor project, dose response (AID 489026); assay type: functional, cell-based;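 further: cells exposed to compound about 14 hours before the viability readout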
[9] = Intein inhibitors as potential Tuberculosis drugs, a cytotoxicity screen. [Related pubchem assays (depositor defined):AID2221, AID2223, AID434968, AID435010, AID449749, AID449750, AID489010]; assay type: functional
Streptococcus = test: GAS UMAA2166 growth inhibition – luminescence, BacTiterGlo, counter-screen for streptokinase expression inhibitor project, dose response (AID 1915); assay type: functional, organism-based;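 further: potency for reduction of bacterial viability or growth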
[10] = luciferase reporter signal reduction – luminescence, H4-C neuroglioblastoma cells, dose response (AID 2458); assay type: functional, cell-based;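 further: H4 neuroglioblastoma cells stably carrying a luciferase reporter gene fusion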
[11] = alpha-synuclein stem-loop translation blockers – luminescence, H4 neuroglioblastoma cells, dose confirmation, confirmation (AID 2454); assay type: functional, cell-based;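 further: H4 neuroglioblastoma cells carrying an alpha-synuclein 5'UTR luciferase reporter; potency for inhibition of the luciferase signal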
[12] = biological target: T5, Sphingosine 1-phosphate receptor 4 (Homo sapiens, UniProt O95977); test: Fluorescence dose response cell-based high throughput screening assay for antagonists of the Sphingosine 1-Phosphate Receptor 4 (S1P4). [Related pubchem assays: 1524 (Confirmation in triplicates.), 1510 (Primary screen.)]; assay type: functional
T5 sequence (O95977 whole entry): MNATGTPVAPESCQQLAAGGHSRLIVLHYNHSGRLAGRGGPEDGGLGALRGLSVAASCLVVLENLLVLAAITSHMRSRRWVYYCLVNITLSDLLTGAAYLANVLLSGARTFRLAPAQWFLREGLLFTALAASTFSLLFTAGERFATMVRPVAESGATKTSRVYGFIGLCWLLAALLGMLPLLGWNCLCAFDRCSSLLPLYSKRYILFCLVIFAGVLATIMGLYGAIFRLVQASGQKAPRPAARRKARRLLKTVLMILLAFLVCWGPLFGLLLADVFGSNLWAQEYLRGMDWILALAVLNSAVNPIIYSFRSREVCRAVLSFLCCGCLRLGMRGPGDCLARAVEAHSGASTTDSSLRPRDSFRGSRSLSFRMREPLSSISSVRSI

[13] = Luminescence Cell-Based Dose Response HTS to Identify Inhibitors of 5'UTR Stem-Loop Driven Prion Protein mRNA Translation in H4 Neuroglioblastoma Cells. [Related pubchem assays: 1827 (Project Summary), 1813 (Primary HTS)]; assay type: functional
Protein RecA [14] = biological target: T2, Protein RecA; test: Fluorescence Cell-Free Homogeneous Dose Retest to Identify Inhibitors of RecA-Intein Splicing Activity. [Related pubchem assays (depositor defined):AID2097, AID2223, AID489010, AID492950]; assay type: functional
cells = assay type: functional, cell-based
[15] = biological target: T3, Replicative DNA helicase DnaB; test: DnaB Intein secondary assay Measured in Biochemical System Using Plate Reader - 2047-04_Inhibitor_Dose_DryPowder_Activity. [Related pubchem assays (depositor defined):AID2223]
[16] = system: Streptococcus sp. 'group A'; test: Streptococcus pyogenes SK(-)GAS viability under kanamycin – luminescence, BacTiterGlo, confirmation, counter-screen for streptokinase expression inhibitor project, dose response (AID 1900); assay type: functional, organism-based
[17] = alpha-synuclein stem-loop luciferase translation blockers – H4 neuroglioma cells, luminescence, confirmation (AID 1988); assay type: functional, cell-based
[18] = NIH3T3 cell viability loss – ATP luminescence, mouse fibroblasts, counter-screen, dose response (AID 2010); assay type: functional, cell-based;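 further: cells exposed to compound for about 90 hours before reading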
[19] = biological target: T4, Sphingosine 1-phosphate receptor 1; test: Fluorescence-based counterscreen assay for S1P4 agonists: Cell-based dose response high throughput screening assay to identify agonists of the Sphingosine 1-Phosphate Receptor 1 (S1P1). [Related pubchem assays (depositor defined):AID1509, AID1523, AID1801, AID463107, AID463118, AID463119, AID463122, AID463123, AID463129, AID463225, AID504400, AID504460]; assay type: functional
[20] = Trypanosoma cruzi growth suppression in host cells – NIH3T3 host cells, beta-gal luminescence, confirmation (AID 2044); assay type: functional, cell-based;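 further: intracellular parasites grown in NIH/3T3 mouse fibroblasts as host cells; luminescent beta-galactosidase reporter signal from transgenic T. cruzi replicating inside host cells; inhibitors lower the luminescence signal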
[21] = biological target: T5, Sphingosine 1-phosphate receptor 4; test: Fluorescence dose response cell-based high throughput screening assay for agonists of the Sphingosine 1-Phosphate Receptor 4 (S1P4). [Related pubchem assays: 1509 (Primary screen.), 1523 (Confirmation screen in triplicates.)]; assay type: functional
[22] = biological target: Intestinal-type alkaline phosphatase (Homo sapiens, UniProt P09923); test: activation of human intestinal alkaline phosphatase – biochemical, dose response (AID 488873); assay type: functional
Sequence of Intestinal-type alkaline phosphatase (Homo sapiens, UniProt P09923) (P09923 whole entry): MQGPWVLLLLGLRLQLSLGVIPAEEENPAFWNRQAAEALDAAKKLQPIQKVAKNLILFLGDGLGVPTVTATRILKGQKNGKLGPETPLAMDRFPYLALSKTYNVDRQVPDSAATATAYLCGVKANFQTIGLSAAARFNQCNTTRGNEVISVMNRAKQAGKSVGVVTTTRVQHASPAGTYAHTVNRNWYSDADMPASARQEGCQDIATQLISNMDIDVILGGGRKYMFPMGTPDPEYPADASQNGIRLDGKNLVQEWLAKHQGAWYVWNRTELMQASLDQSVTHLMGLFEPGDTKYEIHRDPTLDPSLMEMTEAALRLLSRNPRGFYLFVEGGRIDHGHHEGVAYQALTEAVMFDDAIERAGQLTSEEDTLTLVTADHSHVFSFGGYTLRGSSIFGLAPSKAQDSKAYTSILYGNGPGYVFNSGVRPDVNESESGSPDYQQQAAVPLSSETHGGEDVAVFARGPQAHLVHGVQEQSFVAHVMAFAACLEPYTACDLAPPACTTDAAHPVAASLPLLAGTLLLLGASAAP

[23] = biological target: Intestinal-type alkaline phosphatase (Mus musculus, UniProt P24822); test: mouse intestinal alkaline phosphatase activators, dose response, biochemical, luminescence, uHTS hits (AID 488783); assay type: functional
Sequence of Intestinal-type alkaline phosphatase (Mus musculus, UniProt P24822) (P24822 whole entry): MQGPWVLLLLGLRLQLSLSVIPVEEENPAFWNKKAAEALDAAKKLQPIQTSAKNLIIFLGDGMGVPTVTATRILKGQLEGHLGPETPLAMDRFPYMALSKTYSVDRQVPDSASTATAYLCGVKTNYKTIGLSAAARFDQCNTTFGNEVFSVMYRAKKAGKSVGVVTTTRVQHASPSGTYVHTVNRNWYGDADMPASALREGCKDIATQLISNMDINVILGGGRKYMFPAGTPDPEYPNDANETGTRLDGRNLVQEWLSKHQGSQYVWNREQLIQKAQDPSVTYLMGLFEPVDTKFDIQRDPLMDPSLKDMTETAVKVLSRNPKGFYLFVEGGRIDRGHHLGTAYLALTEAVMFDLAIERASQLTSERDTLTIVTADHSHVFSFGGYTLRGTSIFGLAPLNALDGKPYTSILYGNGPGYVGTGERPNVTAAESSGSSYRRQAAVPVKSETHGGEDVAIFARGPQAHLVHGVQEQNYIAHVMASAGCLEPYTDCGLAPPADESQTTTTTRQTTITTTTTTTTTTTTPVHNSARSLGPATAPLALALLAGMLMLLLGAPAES

[24] = biological target: T6, Alkaline phosphatase, tissue-nonspecific isozyme (Homo sapiens, UniProt P05186); test: activation of tissue-nonspecific alkaline phosphatase – biochemical, TNAP isozyme, mouse IAP uHTS hits, selectivity assay for mouse IAP activator project, dose response (AID 488880); assay type: functional
T6 sequence (P05186 whole entry): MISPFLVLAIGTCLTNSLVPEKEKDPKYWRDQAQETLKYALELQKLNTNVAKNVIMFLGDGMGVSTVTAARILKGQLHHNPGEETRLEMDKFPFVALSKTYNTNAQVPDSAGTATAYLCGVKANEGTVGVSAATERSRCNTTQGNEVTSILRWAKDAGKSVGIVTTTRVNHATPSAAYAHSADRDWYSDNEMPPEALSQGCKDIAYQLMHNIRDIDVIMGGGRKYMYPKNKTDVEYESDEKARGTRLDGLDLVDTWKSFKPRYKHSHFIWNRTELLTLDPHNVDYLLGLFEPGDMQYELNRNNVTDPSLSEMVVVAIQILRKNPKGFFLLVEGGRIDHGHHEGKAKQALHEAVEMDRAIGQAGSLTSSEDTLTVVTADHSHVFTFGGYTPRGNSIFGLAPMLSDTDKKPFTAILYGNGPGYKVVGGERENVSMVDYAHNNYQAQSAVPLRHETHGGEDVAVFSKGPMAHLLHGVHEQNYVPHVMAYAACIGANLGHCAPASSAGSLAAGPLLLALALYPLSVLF

Cc1oc2c(c1C(=O)NCc1cccnc1)C(=O)c1ccccc1C2=O
EC50 [1]: 304 nM (active)
AC50 (Protein RecA [2]): 10800 nM (active)
AC50 [3]: 438 nM (active)
CC50 [4]: 295 nM (active)
IC50 [5]: 3650 nM (active)
EC50 [6]: < 100 nM (active)
IC50 [7]: 158 nM (active)
IC50 [8]: 7670 nM (active)
CC50 [9]: 520 nM (active)
EC50 (Streptococcus): 2560 nM (active)
EC50 [10]: 127 nM (active)
EC50 [11]: 145 nM (active)
IC50 [12]: 581 nM (active)
EC50 [13]: < 100 nM (active)
EC50 (Protein RecA [14]): 63.9 nM (active)
EC50 (cells): 232 nM (active)
AC50 [15]: 1150 nM (active)
EC50 [16]: 1310 nM (active)
EC50 [17]: < 100 nM (active)

CC(=O)C1=C(C)NC(SCC(=O)c2ccc(Cl)cc2Cl)=C(C#N)C1c1ccco1 (stereo unspecified)
EC50 [18]: 15700 nM (active)
EC50 [19]: > 49800 nM (inactive)
EC50 [20]: 437 nM (active)
EC50 [21]: > 49800 nM (not active)

Cc1ccc(NC(=O)CCNS(=O)(=O)c2ccc3nc(O)oc3c2)c(Cl)c1
EC50 [22]: 20400 nM (active)
EC50 [23]: 14900 nM (active)
EC50 [24]: 28100 nM (active)
